From US20250326794A1, “ANTI-CANCER LEUCINE-RICH PEPTIDES AND USES THEREOF” (KING'S COLLEGE LONDON, priority 2019, published 2025)

What was measured:
[1] = Tryptophan fluorescent binding assay, 3POPC/1POPG vesicles; details: 50 μM peptide, PBS pH 7.4, lipid per peptide
How it was run: (§1)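 Peptide fixed at 50 μM, titrated with POPC or 3POPC/1POPG large unilamellar vesicles (100 nm extruded; 0-5000 μM lipid) in PBS pH 7.4. Tryptophan fluorescence (ex 280, em 300-450 nm) read after 60 min; lipid concentration giving 50% binding reported as lipid/peptide ratio.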

[2] = ANTS/DPX liposome leakage assay, 3POPC/1POPG vesicles; format: biochemical; details: 0.5 mM vesicles; for Peptide Concentration-induced 50% ANTS/DPX leakage at pH 4.8, 3POPC/1POPG Vesicle: pH 4.8, lipid per peptide; for Peptide Concentration-induced 50% ANTS/DPX leakage at pH 7.4, 3POPC/1POPG Vesicle: pH 7.4, lipid per peptide
How it was run: (§2)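 LUVs (100 nm extruded) of POPC or POPC:POPG 3:1, loaded with 5 mM ANTS/12.5 mM DPX, used at 0.5 mM lipid with peptide 0–20 μM in PBS pH 7.4 or HCl-adjusted PBS pH 4.8. Leakage read after 3 h (ex 350/em 510 nm) against 10% Triton maximum; 50% leakage expressed as lipid per peptide.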

[3] = system: U2OS (human bone osteosarcoma); details: 72 h
How it was run: (§3)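 MTT viability after 72 h exposure to 0–100 μM compound (final DMSO 0.5% or 0%), 5×10^3 cells/well; HMLER lines and MCF-10A in MEGM, U2OS in DMEM with 10% FBS. A550 normalized to matching vehicle controls; IC50 interpolated from dose–response curves.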

[4] = system: HMLER (human breast cancer bulk cell); test: cells; details: 72 h
How it was run: as §3

[5] = system: HMLER-shEcad (human breast cancer stem cell); test: cells; details: 72 h
How it was run: as §3

[6] = system: HEK293T (human embryonic kidney cell); test: cells; details: 72 h
[7] = ANTS/DPX liposome leakage assay, POPC vesicles; format: biochemical; details: 0.5 mM vesicles; for Peptide Concentration-induced 50% ANTS/DPX leakage at pH 4.8, POPC Vesicle: pH 4.8, lipid per peptide; for Peptide Concentration-induced 50% ANTS/DPX leakage at pH 7.4, POPC Vesicle: pH 7.4, lipid per peptide
How it was run: as §2

[8] = Tryptophan fluorescent binding assay, POPC vesicles; details: 50 μM peptide, PBS pH 7.4, lipid per peptide
How it was run: as §1

Structure (SMILES)	Lipid Concentration-induced 50% Peptide Binding, 3POPC/1POPG Vesicle [1] [L/P]	Peptide Concentration-induced 50% ANTS/DPX leakage at pH 4.8, 3POPC/1POPG Vesicle [2] [L/P]	Peptide Concentration-induced 50% ANTS/DPX leakage at pH 7.4, 3POPC/1POPG Vesicle [2] [L/P]	IC50 [3] [µM]	IC50 [4] [µM]	IC50 [5] [µM]	IC50 [6] [µM]	Peptide Concentration-induced 50% ANTS/DPX leakage at pH 4.8, POPC Vesicle [7] [L/P]	Peptide Concentration-induced 50% ANTS/DPX leakage at pH 7.4, POPC Vesicle [7] [L/P]	Lipid Concentration-induced 50% Peptide Binding, POPC Vesicle [8] [L/P]
CC(C)C[C@H](NC(=O)CN)C(=O)N[C@@H](CC(C)C)C(=O)N[C@@H](CCCCN)C(=O)N[C@@H](CC(C)C)C(=O)N[C@@H](CC(C)C)C(=O)N[C@@H](Cc1c[nH]cn1)C(=O)N[C@@H](CC(C)C)C(=O)N[C@@H](CC(C)C)C(=O)N[C@@H](CC(C)C)C(=O)N[C@@H](Cc1c[nH]cn1)C(=O)N[C@@H](C)C(=O)N[C@@H](C)C(=O)NCC(=O)N[C@@H](Cc1c[nH]c2ccccc12)C(N)=O [KHH]	0.94	48	329	39.8 ± 5.3	5.2 ± 0.71	4.45 ± 0.49	7.75 ± 0.78	227	1153	3.50
CC(C)C[C@H](NC(=O)CN)C(=O)N[C@@H](CC(C)C)C(=O)N[C@@H](CCCCN)C(=O)N[C@@H](CC(C)C)C(=O)N[C@@H](CC(C)C)C(=O)N[C@@H](Cc1c[nH]cn1)C(=O)N[C@@H](CC(C)C)C(=O)N[C@@H](CC(C)C)C(=O)N[C@@H](CC(C)C)C(=O)N[C@@H](CCCCN)C(=O)N[C@@H](C)C(=O)N[C@@H](C)C(=O)NCC(=O)N[C@@H](Cc1c[nH]c2ccccc12)C(N)=O [KHK]	0.38	53	193	12.9 ± 1.24	2.59 ± 0.92	1.4 ± 0.14	3.55 ± 0.78	140	1153	0.17
CC(C)C[C@H](NC(=O)CN)C(=O)N[C@@H](CC(C)C)C(=O)N[C@@H](CCCCN)C(=O)N[C@@H](CC(C)C)C(=O)N[C@@H](CC(C)C)C(=O)N[C@@H](CCCCN)C(=O)N[C@@H](CC(C)C)C(=O)N[C@@H](CC(C)C)C(=O)N[C@@H](CC(C)C)C(=O)N[C@@H](CCC(=O)O)C(=O)N[C@@H](C)C(=O)N[C@@H](C)C(=O)NCC(=O)N[C@@H](Cc1c[nH]c2ccccc12)C(N)=O [KKE]	0.44	131	346	12.8 ± 1.2	2.05 ± 0.64	1.7	4.4 ± 0.14	143	1133	0.48
CC(C)C[C@H](NC(=O)CN)C(=O)N[C@@H](CC(C)C)C(=O)N[C@@H](CCCCN)C(=O)N[C@@H](CC(C)C)C(=O)N[C@@H](CC(C)C)C(=O)N[C@@H](CCCCN)C(=O)N[C@@H](CC(C)C)C(=O)N[C@@H](CC(C)C)C(=O)N[C@@H](CC(C)C)C(=O)N[C@@H](Cc1c[nH]cn1)C(=O)N[C@@H](C)C(=O)N[C@@H](C)C(=O)NCC(=O)N[C@@H](Cc1c[nH]c2ccccc12)C(N)=O [KKH]	0.48	49	227	13.3 ± 0.99	2.4 ± 0.85	2.2 ± 0.42	4 ± 0.28	164	2119	0.83
CC(C)C[C@H](NC(=O)CN)C(=O)N[C@@H](CC(C)C)C(=O)N[C@@H](CCCCN)C(=O)N[C@@H](CC(C)C)C(=O)N[C@@H](CC(C)C)C(=O)N[C@@H](CCCCN)C(=O)N[C@@H](CC(C)C)C(=O)N[C@@H](CC(C)C)C(=O)N[C@@H](CC(C)C)C(=O)N[C@@H](CCCCN)C(=O)N[C@@H](C)C(=O)N[C@@H](C)C(=O)NCC(=O)N[C@@H](Cc1c[nH]c2ccccc12)C(N)=O [KKK]	1.70	81	115	9.65 ± 1.2	1.57 ± 0.24	1.35 ± 0.4	3.7 ± 0.14	156	1369	1.25
